{"source": "PubChem BioAssay AID1117359", "about": "(Southern Research Institute, 2015)", "data": [{"system": "THP-1 viability, CellTiter-Glo luminescence, 72 h", "assay": "THP-1 cell cytotoxicity, dose response, cytotoxicity control for Vif-APOBEC3G degradation inhibitor project, THP-1 cells (AID 1117359)", "units": {"CC50": "µM"}, "values": [{"smiles": "CCOC(=O)C(C(=O)OCC)c1cc(Br)c2noc3c2c1C(=O)c1ccccc1-3", "CC50": 9.78}, {"smiles": "CCN=c1scc(C)n1/N=C/c1ccc(O)c(O)c1O", "CC50": 19.9}, {"smiles": "O=[N+]([O-])c1c(NCCO)cc(Sc2nc3ccccc3s2)c2nonc12", "CC50": 17.9}, {"smiles": "COC(C(=O)C(O)C(C)O)C1Cc2cc3cc(OC4CC(OC5CC(O)C(O)C(C)O5)C(O)C(C)O4)c(C)c(O)c3c(O)c2C(=O)C1OC1CC(OC2CC(OC3CC(O)C(OC)C(C)O3)C(O)C(C)O2)C(O)C(C)O1", "note": "(stereo not drawn)", "CC50": "< 0.08"}, {"smiles": "CCOc1cc(CNc2ccc(O)cc2)ccc1OCc1ccc(Cl)cc1Cl", "CC50": 8.81}, {"smiles": "CSc1nc(N(CCO)CCO)c2sc3nc(-c4ccco4)c4c(c3c2n1)CCC4", "CC50": 19.8}, {"smiles": "Oc1ccc(N=Cc2ccc(O)c(O)c2)cc1", "CC50": 13}, {"smiles": "Oc1ccc(/C=N/NP(=S)(c2ccccc2)c2ccccc2)c(O)c1O", "CC50": 38.3}]}]}
